Results: ChEMBL document CHEMBL5126643, “Design and Characterization of Novel Small Molecule Activators of Excitatory Amino Acid Transporter 2” (ACS Med Chem Lett, 2022)

Tests used:
[1] = molecular target: Excitatory amino acid transporter 2 (Homo sapiens, UniProt P43004); assay: Activation of human EAAT2 overexpressed in MDCK cells assessed as glutamate reuptake incubated for 5 mins by LCMS assay; assay type: cell-based
[2] = Lipophilicity, log P of the compound; assay type: physicochemical; conditions: octanol/water
[3] = Oral bioavailability in Wistar rat plasma at 10 mg/kg measured up to 24 hrs by LC-MS/MS analysis; assay type: ADME, organism-based
[4] = AUC in Wistar rat plasma at 5 mg/kg, iv measured up to 24 hrs by LC-MS/MS analysis; assay type: ADME, organism-based; set-up: dose 5 mg/kg, time < 24 hrs, route iv; conditions: in vivo
[5] = Half life in Wistar rat plasma at 5 mg/kg, iv measured up to 24 hrs by LC-MS/MS analysis; assay type: ADME, organism-based
[6] = Tmax in Wistar rat brain at 10 mg/kg, ip measured up to 24 hrs by LC-MS/MS analysis; assay type: ADME, organism-based
[7] = Half life in Wistar rat brain at 10 mg/kg, ip measured up to 24 hrs by LC-MS/MS analysis; assay type: ADME, organism-based
[8] = Tmax in Wistar rat brain at 10 mg/kg, po measured up to 24 hrs by LC-MS/MS analysis; assay type: ADME, organism-based
[9] = Cmax in Wistar rat brain at 10 mg/kg, po measured up to 24 hrs by LC-MS/MS analysis; assay type: ADME, organism-based; set-up: dose 10 mg/kg, time < 24 hrs, route po
[10] = Tmax in Wistar rat brain at 5 mg/kg, iv measured up to 24 hrs by LC-MS/MS analysis; assay type: ADME, organism-based
[11] = AUC in Wistar rat brain at 5 mg/kg, iv measured up to 24 hrs by LC-MS/MS analysis; assay type: ADME, organism-based; set-up: time < 24 hrs, dose 5 mg/kg, route iv; conditions: in vivo
[12] = Cmax in Wistar rat plasma at 10 mg/kg, po measured up to 24 hrs by LC-MS/MS analysis; assay type: ADME, organism-based; set-up: dose 10 mg/kg, time < 24 hrs, route po
[13] = Cmax in Wistar rat brain at 10 mg/kg, ip measured up to 24 hrs by LC-MS/MS analysis; assay type: ADME, organism-based; set-up: time < 24 hrs, dose 10 mg/kg, route ip
[14] = Cmax in Wistar rat plasma at 10 mg/kg, ip measured up to 24 hrs by LC-MS/MS analysis; assay type: ADME, organism-based; set-up: dose 10 mg/kg, time < 24 hrs, route ip
[15] = Cmax in Wistar rat plasma at 5 mg/kg, iv measured up to 24 hrs by LC-MS/MS analysis; assay type: ADME, organism-based; set-up: dose 5 mg/kg, time < 24 hrs, route iv
[16] = AUC in Wistar rat plasma at 10 mg/kg, ip measured up to 24 hrs by LC-MS/MS analysis; assay type: ADME, organism-based; set-up: time < 24 hrs, dose 10 mg/kg, route ip; conditions: in vivo
[17] = Tmax in Wistar rat plasma at 5 mg/kg, iv measured up to 24 hrs by LC-MS/MS analysis; assay type: ADME, organism-based
[18] = AUC in Wistar rat brain at 10 mg/kg, po measured up to 24 hrs by LC-MS/MS analysis; assay type: ADME, organism-based; set-up: time < 24 hrs, dose 10 mg/kg, route po; conditions: in vivo
[19] = Cmax in Wistar rat brain at 5 mg/kg, iv measured up to 24 hrs by LC-MS/MS analysis; assay type: ADME, organism-based; set-up: dose 5 mg/kg, time < 24 hrs, route iv
[20] = Tmax in Wistar rat plasma at 10 mg/kg, po measured up to 24 hrs by LC-MS/MS analysis; assay type: ADME, organism-based
[21] = AUC in Wistar rat plasma at 10 mg/kg, po measured up to 24 hrs by LC-MS/MS analysis; assay type: ADME, organism-based; set-up: time < 24 hrs, dose 10 mg/kg, route po; conditions: in vivo
[22] = Tmax in Wistar rat plasma at 10 mg/kg, ip measured up to 24 hrs by LC-MS/MS analysis; assay type: ADME, organism-based
[23] = AUC in Wistar rat brain at 10 mg/kg, ip measured up to 24 hrs by LC-MS/MS analysis; assay type: ADME, organism-based; set-up: dose 10 mg/kg, time < 24 hrs, route ip; conditions: in vivo
[24] = Half life in Wistar rat brain at 5 mg/kg, iv measured up to 24 hrs by LC-MS/MS analysis; assay type: ADME, organism-based
[25] = Half life in Wistar rat plasma at 10 mg/kg, ip measured up to 24 hrs by LC-MS/MS analysis; assay type: ADME, organism-based
[26] = Half life in Wistar rat plasma at 10 mg/kg, po measured up to 24 hrs by LC-MS/MS analysis; assay type: ADME, organism-based
[27] = Bioavailability in Wistar rat plasma at 10 mg/kg, ip measured up to 24 hrs by LC-MS/MS analysis; assay type: ADME, organism-based
[28] = Primary phase half life in CD-1 mouse brain at 10 mg/kg, ip measured up to 8 hrs by LC-MS/MS analysis; assay type: ADME, organism-based; conditions: read-out: alphat1/2 (converted)
[29] = Tmax in CD-1 mouse brain at 10 mg/kg, ip measured up to 8 hrs by LC-MS/MS analysis; assay type: ADME, organism-based
[30] = AUC in CD-1 mouse plasma at 10 mg/kg, ip measured up to 8 hrs by LC-MS/MS analysis; assay type: ADME, organism-based; set-up: time < 8 hrs, dose 10 mg/kg, route ip; conditions: in vivo
[31] = AUC in CD-1 mouse brain at 10 mg/kg, ip measured up to 8 hrs by LC-MS/MS analysis; assay type: ADME, organism-based; set-up: time < 8 hrs, dose 10 mg/kg, route ip; conditions: in vivo
[32] = Primary phase half life in CD-1 mouse plasma at 10 mg/kg, ip measured up to 8 hrs by LC-MS/MS analysis; assay type: ADME, organism-based; conditions: read-out: alphat1/2 (converted)
[33] = Tmax in CD-1 mouse plasma at 10 mg/kg, ip measured up to 8 hrs by LC-MS/MS analysis; assay type: ADME, organism-based
[34] = Cmax in CD-1 mouse brain at 10 mg/kg, ip measured up to 8 hrs by LC-MS/MS analysis; assay type: ADME, organism-based; set-up: dose 10 mg/kg, time < 8 hrs, route ip
[35] = Cmax in CD-1 mouse plasma at 10 mg/kg, ip measured up to 8 hrs by LC-MS/MS analysis; assay type: ADME, organism-based; set-up: dose 10 mg/kg, time < 8 hrs, route ip
[36] = Half life in Wistar rat brain at 10 mg/kg, po measured up to 24 hrs by LC-MS/MS analysis; assay type: ADME, organism-based

Sequence of Excitatory amino acid transporter 2 (P43004 whole entry): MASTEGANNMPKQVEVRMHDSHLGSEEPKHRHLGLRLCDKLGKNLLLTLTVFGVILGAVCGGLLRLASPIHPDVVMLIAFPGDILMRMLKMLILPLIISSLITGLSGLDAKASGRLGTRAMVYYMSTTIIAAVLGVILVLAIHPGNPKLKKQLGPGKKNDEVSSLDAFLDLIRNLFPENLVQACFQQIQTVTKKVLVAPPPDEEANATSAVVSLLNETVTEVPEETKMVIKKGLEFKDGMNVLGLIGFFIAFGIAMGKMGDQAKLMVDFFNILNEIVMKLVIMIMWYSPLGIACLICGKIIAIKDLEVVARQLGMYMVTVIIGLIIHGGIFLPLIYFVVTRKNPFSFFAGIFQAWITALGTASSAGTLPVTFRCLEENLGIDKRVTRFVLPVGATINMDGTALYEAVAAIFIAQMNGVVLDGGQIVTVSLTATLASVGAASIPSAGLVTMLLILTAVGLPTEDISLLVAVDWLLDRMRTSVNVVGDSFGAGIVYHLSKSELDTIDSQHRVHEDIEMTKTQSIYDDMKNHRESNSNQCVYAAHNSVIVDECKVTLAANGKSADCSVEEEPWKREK

Compound | EC50 [1] | logP [2] | bioavailability [3] | AUC [4] | half-life [5] | Tmax [6] | half-life [7] | Tmax [8] | Cmax [9] | Tmax [10] | AUC [11] | Cmax [12] | Cmax [13] | Cmax [14] | Cmax [15] | AUC [16] | Tmax [17] | AUC [18] | Cmax [19] | Tmax [20] | also measured
Cc1ccccc1CSc1ccc(-c2ccccn2)nn1 | 1830 nM |  |  |  |  |  |  |  |  |  |  |  |  |  |  |  |  |  |  |  | 
COc1ccc2[nH]c(=O)c(C(c3nnnn3CCc3ccccc3)N3CCN(C4CCCCC4)CC3)cc2c1 (stereo not drawn) |  | > 6 |  |  |  |  |  |  |  |  |  |  |  |  |  |  |  |  |  |  | 
COc1ccc(NC(=O)C(=O)N2CCN(c3ccccc3)CC2)cc1 |  |  | 17.5% | 919.43 ng·h/g | 6.08 h | 0.5 h | 2.26 h | 1.38 h | 25 ng/g | 0.5 h | 443.23 ng·h/g | 42.9 ng/g | 204 ng/g | 450 ng/g | 567 ng/g | 1073.21 ng·h/g | 0.5 h | 183 ng·h/g | 371 ng/g | 3.25 h | AUC [21]: 321.93 ng·h/g; Tmax [22]: 0.63 h; AUC [23]: 429.85 ng·h/g; half-life [24]: 1.52 h; half-life [25]: 6.22 h; half-life [26]: 5.34 h; bioavailability [27]: 58.4%
COc1ccc2[nH]c(=O)c(C(c3nnnn3CCc3ccccc3)N3CCN(c4cccc(C(F)(F)F)c4)CC3)cc2c1 (stereo not drawn) |  | > 6 |  |  |  |  |  |  |  |  |  |  |  |  |  |  |  |  |  |  | half-life [28]: 3.5 h; Tmax [29]: 0.5 h; AUC [30]: 1339 ng·h/g; AUC [31]: 86 ng·h/g; half-life [32]: 3 h; Tmax [33]: 0.5 h; Cmax [34]: 30 ng/mL; Cmax [35]: 717 ng/mL
COc1ccc(NC(=O)C(=O)NCC(c2ccccc2)N2CCN(C)CC2)cc1 (stereo not drawn) |  |  | 80.3% | 315.635 ng·h/g | 0.651 h | 0.5 h | 1.62 h | 0.88 h | 1170 ng/g | 0.5 h | 1959.7 ng·h/g | 204 ng/g | 2460 ng/g | 262 ng/g | 307 ng/g | 536.768 ng·h/g | 0.5 h | 2816.8 ng·h/g | 1220 ng/g | 0.875 h | AUC [21]: 507.2 ng·h/g; Tmax [22]: 0.5 h; AUC [23]: 4414.35 ng·h/g; half-life [24]: 1.03 h; half-life [25]: 1.02 h; half-life [26]: 4.76 h; bioavailability [27]: 85%; half-life [36]: 1.81 h
CO/N=C(\C(=O)N[C@@H]1C(=O)N2C(C(=O)O)=C(CSc3nc(=O)c(=O)[nH]n3C)CS[C@H]12)c1csc(N)n1 [CEFTRIAXONE] | > 10000 nM |  |  |  |  |  |  |  |  |  |  |  |  |  |  |  |  |  |  |  | 
